The record followed here is US9751854B2 (Millennium Pharmaceuticals, Inc., priority 2014, dated 2017).

Molecules are shown by their SMILES. pIC50: −log10 of the molar value.

As usually defined, the pIC50 is the IC50 on a negative log10 scale, so that one unit is a factor of ten.

Sequence of human VPS34 (Q8NEB9 whole entry): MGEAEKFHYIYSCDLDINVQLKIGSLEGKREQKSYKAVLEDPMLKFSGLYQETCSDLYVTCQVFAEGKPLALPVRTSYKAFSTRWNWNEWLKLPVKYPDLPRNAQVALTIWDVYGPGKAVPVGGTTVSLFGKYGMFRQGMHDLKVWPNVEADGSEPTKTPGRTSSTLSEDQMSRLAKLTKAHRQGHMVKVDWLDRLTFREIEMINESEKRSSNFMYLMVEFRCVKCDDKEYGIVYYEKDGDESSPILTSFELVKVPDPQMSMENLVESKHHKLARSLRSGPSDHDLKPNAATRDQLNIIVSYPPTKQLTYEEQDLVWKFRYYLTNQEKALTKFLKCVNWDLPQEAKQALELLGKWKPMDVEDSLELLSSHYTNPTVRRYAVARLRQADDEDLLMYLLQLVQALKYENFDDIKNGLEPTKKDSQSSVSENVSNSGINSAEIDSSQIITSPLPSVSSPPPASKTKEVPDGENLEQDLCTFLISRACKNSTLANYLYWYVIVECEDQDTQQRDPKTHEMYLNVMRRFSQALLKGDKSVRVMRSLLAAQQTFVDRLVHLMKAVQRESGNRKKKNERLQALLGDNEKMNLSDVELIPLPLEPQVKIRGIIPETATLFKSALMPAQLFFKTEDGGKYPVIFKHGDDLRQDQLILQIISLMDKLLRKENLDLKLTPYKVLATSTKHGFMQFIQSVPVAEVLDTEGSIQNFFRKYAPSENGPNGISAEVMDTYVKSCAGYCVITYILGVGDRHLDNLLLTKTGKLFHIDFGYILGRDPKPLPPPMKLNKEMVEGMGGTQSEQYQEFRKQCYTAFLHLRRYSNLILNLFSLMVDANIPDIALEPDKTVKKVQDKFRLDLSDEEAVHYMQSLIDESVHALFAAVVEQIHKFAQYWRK

One assay addresses human VPS34 (Homo sapiens (Human), UniProt Q8NEB9). Nature of the assay: Human VPS34 enzyme assay (Adapta TR-FRET ADP detection). The format is biochemical.
Details: not given
In general terms: In TR-FRET formats the signal depends on donor and acceptor labels being close together.
On to `Cc1cc(Nc2cc(-c3cnc(Cl)c(NS(=O)(=O)c4ccc(F)cc4F)c3C)ccn2)nc(C)n1` [Compound I-218, N-{6-chloro-2′-[(2,6-dimethylpyrimidin-4-yl)amino]-4-methyl-3,4′-bipyridin-5-yl}-2,4-difluorobenzenesulfonamide], for which the “Percent Inhibition” value is recorded as above 99%.

The same assay, now with this note: IC50 range class.
Take `Cc1cc(Nc2cc(-c3cnc(Cl)c(NS(=O)(=O)c4ccc(F)cc4F)c3C)ccn2)nc(C)n1` [Compound I-218, N-{6-chloro-2′-[(2,6-dimethylpyrimidin-4-yl)amino]-4-methyl-3,4′-bipyridin-5-yl}-2,4-difluorobenzenesulfonamide]: the pIC50 is 7.30 to 8.00.
Same read-out and setting: to `CC(=O)Nc1cc(-c2cnc(N)c(N3CCCS3(=O)=O)c2)ccn1` [Compound I-181, N-[6-amino-5-(1,1-dioxidoisothiazolidin-2-yl)-3,4′-bipyridin-2′-yl]acetamide] belongs above 8.00; to `CC(=O)Nc1cc(-c2cnc(C)c(NS(=O)(=O)c3cc(Cl)sc3Cl)c2)ccn1` [Compound I-465, N-[5-{[(2,5-dichloro-3-thienyl)sulfonyl]amino}-6-methyl-3,4′-bipyridin-2′-yl)acetamide], 7.30 to 8.00.
Same read-out and setting: to `Cc1nccc(Nc2cc(-c3cnc(C)c(OC(C)C)c3)ccn2)n1` [Compound I-446, 5-isopropoxy-6-methyl-N-(2-methylpyrimidin-4-yl)-3,4′-bipyridin-2′-amine] belongs 7.30 to 8.00; to `CC(=O)Nc1cc(-c2cnc3c(c2)S(=O)(=O)N(C)CN3)ccn1` [Compound I-21, N-[4-(2-methyl-1,1-dioxido-3,4-dihydro-2H-pyrido[2,3-e][1,2,4]thiadiazin-7-yl)pyridin-2-yl]acetamide], 7.30 to 8.00.
Same read-out and setting: as for `CC(=O)Nc1cc(-c2cnc(C)c(NS(=O)(=O)c3ccc(C(C)C)cc3)c2)ccn1` [Compound I-134, N-(5-{[(4-isopropylphenyl)sulfonyl]amino}-6-methyl-3,4′-bipyridin-2′-yl)acetamide], the figure is 7.30 to 8.00; as for `CC(=O)Nc1cc(-c2cnc(NCC3CC3)c(NCC3CC3)c2)ccn1` [Compound I-65, N-{5,6-bis[(cyclopropylmethyl)amino]-3,4′-bipyridin-2′-yl}acetamide], below 7.00; as for `CN(C)c1ncc(-c2ccnc(Nc3ccncn3)c2)cc1C(=O)N(C)C12CC(C1)C2` [Compound I-284, N-(bicyclo[1.1.1]pent-1-yl)-6-(dimethylamino)-N-methyl-2′-(pyrimidin-4-ylamino]-3,4′-bipyridine-5-carboxamide], 7.30 to 8.00.
For the molecule `COc1nccc(Nc2cc(-c3cnc(Cl)c(NS(=O)(=O)c4ccc(F)cc4F)c3C)ccn2)n1` [Compound I-225, N-{6-chloro-2′-[(2-methoxypyrimidin-4-yl)amino]-4-methyl-3,4′-bipyridin-5-yl}-2,4-difluorobenzenesulfonamide], the negative-log IC50 (pIC50) is above 8.00.
Same read-out and setting: as for `Cc1nccc(Nc2cc(-c3cnc(C)c(C(=O)N4CCCC4)c3)ccn2)n1` [Compound I-315, {6-methyl-2′-[(2-methylpyrimidin-4-yl)amino]-3,4′-bipyridin-5-yl}(pyrrolidin-1-yl)methanone], the figure is 7.30 to 8.00; as for `Cc1nccc(Nc2cc(-c3cnc(C)c(N4CCCN(C)S4(=O)=O)c3)ccn2)n1` [Compound I-288, 6-methyl-5-(6-methyl-1,1-dioxido-1,2,6-thiadiazinan-2-yl)-N-(2-methylpyrimidin-4-yl)-3,4′-bipyridin-2′-amine], 7.30 to 8.00.
Still for that read-out and setting: as for `Cc1nccc(Nc2cc(-c3cnc(Cl)c(C(=O)N4CCC4)c3C)ccn2)n1` [Compound I-457, axetidin-1-yl{6-chloro-4-methyl-2′-[(2-methylpyrimidin-4-yl)amino]-3,4′-bipyridine-5-yl)methanone], the figure is 7.30 to 8.00; as for `CC(=O)Nc1cc(-c2cnc(C)c(C(=O)N(C)c3ccc(F)cc3F)c2)ccn1` [Compound I-485, 2′-acetamido-N-(2,4-difluorophenyl)-N,6-dimethyl-3,4′-bipyridine-5-carboxamide], 7.30 to 8.00; as for `Cc1c(-c2ccnc(NC(=O)C3CC3(F)F)c2)cnc(Cl)c1NS(=O)(=O)c1ccc(F)cc1F` (stereo not drawn) [Compound I-254, N-(6-chloro-5-{[(2,4-difluorophenyl)sulfonyl]amino}-4-methyl-3,4′-bipyridin-2′-yl)-2,2-difluorocyclopropanecarboxamide], 7.30 to 8.00.
